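All cell lines were grown in 96-well plates and treated with compound for 48 hours. The concentration for full growth arrest is given as TGI.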
Experiments:
Assay in all cases: NCI-60 cell line screen, 48 h
HOP-92 NSCLC = test system: HOP-92 NSCLC
MDA-MB-435 = test system: MDA-MB-435
NCI/ADR-RES ovarian = test system: NCI/ADR-RES ovarian
EKVX NSCLC = test system: EKVX NSCLC
UACC-62 melanoma = test system: UACC-62 melanoma
HL-60(TB) leukemia = test system: HL-60(TB) leukemia
MDA-N = test system: MDA-N
MOLT-4 leukemia = test system: MOLT-4 leukemia
CCRF-CEM leukemia = test system: CCRF-CEM leukemia
U251 CNS = test system: U251 CNS
RXF 393 renal = test system: RXF 393 renal
RPMI-8226 leukemia = test system: RPMI-8226 leukemia
SK-MEL-2 melanoma = test system: SK-MEL-2 melanoma
NCI-H522 lung = test system: NCI-H522 lung
A498 renal = test system: A498 renal
IGROV1 ovarian = test system: IGROV1 ovarian
A549 NSCLC = test system: A549 NSCLC
HCC-2998 colon = test system: HCC-2998 colon
HT29 colon = test system: HT29 colon
SF-295 CNS = test system: SF-295 CNS
SW-620 colon = test system: SW-620 colon
T-47D breast = test system: T-47D breast
SN12C renal = test system: SN12C renal
PC-3 prostate = test system: PC-3 prostate
NCI-H226 lung = test system: NCI-H226 lung
HOP-62 NSCLC = test system: HOP-62 NSCLC
COLO 205 colon = test system: COLO 205 colon
UACC-257 melanoma = test system: UACC-257 melanoma
K-562 leukemia = test system: K-562 leukemia
TK-10 renal = test system: TK-10 renal
OVCAR-5 ovarian = test system: OVCAR-5 ovarian
HCT-15 colon = test system: HCT-15 colon
786-0 renal = test system: 786-0 renal
NCI-H23 lung = test system: NCI-H23 lung
OVCAR-4 ovarian = test system: OVCAR-4 ovarian
OVCAR-8 ovarian = test system: OVCAR-8 ovarian
DU-145 prostate = test system: DU-145 prostate
NCI-H460 lung = test system: NCI-H460 lung
SK-MEL-5 melanoma = test system: SK-MEL-5 melanoma
MALME-3M melanoma = test system: MALME-3M melanoma
KM12 colon = test system: KM12 colon
HS 578T breast = test system: HS 578T breast
OVCAR-3 ovarian = test system: OVCAR-3 ovarian
SK-MEL-28 melanoma = test system: SK-MEL-28 melanoma
SF-268 CNS = test system: SF-268 CNS
MCF7 breast = test system: MCF7 breast
ACHN renal = test system: ACHN renal
M14 melanoma = test system: M14 melanoma
SR leukemia = test system: SR leukemia
UO-31 renal = test system: UO-31 renal
SNB-75 CNS = test system: SNB-75 CNS
MDA-MB-231 breast = test system: MDA-MB-231 breast
LOX IMVI melanoma = test system: LOX IMVI melanoma
SK-OV-3 ovarian = test system: SK-OV-3 ovarian
HCT-116 colon = test system: HCT-116 colon
SF-539 CNS = test system: SF-539 CNS
CAKI-1 renal = test system: CAKI-1 renal
SNB-19 CNS = test system: SNB-19 CNS
BT-549 breast = test system: BT-549 breast

Work on `O=[N+]([O-])c1cc(-c2nc(-c3ccccc3)c(-c3ccccc3)[nH]2)c(O)c([N+](=O)[O-])c1` yielded a TGI (HOP-92 NSCLC) of 36.9 µM, a TGI (MDA-MB-435) of 95.3 µM and a TGI (NCI/ADR-RES ovarian) of 56.7 µM. It also gave a TGI (EKVX NSCLC) of 58.9 µM, a TGI (UACC-62 melanoma) of 33.8 µM and a TGI (HL-60(TB) leukemia) of 70.1 µM. For the same molecule, the TGI (MDA-N) was > 100 µM, the TGI (MOLT-4 leukemia) was 61.7 µM and the TGI (CCRF-CEM leukemia) was 72.7 µM. The TGI (U251 CNS) was 29.5 µM, the TGI (RXF 393 renal) was 44.8 µM and the TGI (RPMI-8226 leukemia) was 75.1 µM. It also gave a TGI (SK-MEL-2 melanoma) of 38.3 µM, a TGI (NCI-H522 lung) of 63.7 µM and a TGI (A498 renal) of 40.5 µM. For the same molecule, the TGI (IGROV1 ovarian) was > 100 µM, the TGI (A549 NSCLC) was > 100 µM and the TGI (HCC-2998 colon) was 30.8 µM. For the same molecule, the TGI (HT29 colon) was 35.8 µM, the TGI (SF-295 CNS) was 54.2 µM and the TGI (SW-620 colon) was 90.8 µM. The TGI (T-47D breast) was 68.3 µM, the TGI (SN12C renal) was 77.4 µM and the TGI (PC-3 prostate) was 44.3 µM. It also gave a TGI (NCI-H226 lung) of 40.7 µM, a TGI (HOP-62 NSCLC) of 43.4 µM and a TGI (COLO 205 colon) of 45.1 µM. The TGI (UACC-257 melanoma) was 50.9 µM, the TGI (K-562 leukemia) was > 100 µM and the TGI (TK-10 renal) was 65.8 µM. For the same molecule, the TGI (OVCAR-5 ovarian) was 50.3 µM, the TGI (HCT-15 colon) was 33.6 µM and the TGI (786-0 renal) was 48.6 µM. For the same molecule, the TGI (NCI-H23 lung) was 36.1 µM, the TGI (OVCAR-4 ovarian) was > 100 µM and the TGI (OVCAR-8 ovarian) was > 100 µM. The TGI (DU-145 prostate) was 55.4 µM, the TGI (NCI-H460 lung) was 48.3 µM and the TGI (SK-MEL-5 melanoma) was 36 µM. The TGI (MALME-3M melanoma) was 52 µM, the TGI (KM12 colon) was 65.1 µM and the TGI (HS 578T breast) was > 100 µM. For the same molecule, the TGI (OVCAR-3 ovarian) was > 100 µM, the TGI (SK-MEL-28 melanoma) was > 100 µM and the TGI (SF-268 CNS) was > 100 µM. The TGI (MCF7 breast) was 72.9 µM, the TGI (ACHN renal) was 46.7 µM and the TGI (M14 melanoma) was 46.4 µM. It also gave a TGI (SR leukemia) of 58.7 µM, a TGI (UO-31 renal) of 33.4 µM and a TGI (SNB-75 CNS) of 60 µM. It also gave a TGI (MDA-MB-231 breast) of 49.9 µM, a TGI (LOX IMVI melanoma) of 49.1 µM and a TGI (SK-OV-3 ovarian) of 40.6 µM. For the same molecule, the TGI (HCT-116 colon) was 33.4 µM, the TGI (SF-539 CNS) was 41.5 µM and the TGI (CAKI-1 renal) was 77.6 µM. For the same molecule, the TGI (SNB-19 CNS) was > 100 µM and the TGI (BT-549 breast) was 59.8 µM.
